Results: patent US20250339415A1, “DISULFIDE COMPOUNDS AS MEDICAMENTS” (CYTACOAT AB, priority 2021, published 2025)
≈ marks a conversion by molar mass, not a printed value. Where two headings read alike, the source gives them in different places.

What was measured:
Assay type in all cases: cell-based
[1] = test system: Enterococcus faecalis #28 (KI, Clinical Isolate); assay: Minimum inhibitory concentration (MIC), visible growth; conditions: for MIC: Enterococcus faecalis
Experimental: (§1) • 1. Using a sterile inoculating loop, transfer bacteria/Candida albicans from frozen stock culture and streak them on a fresh LA plate. • 2. Incubate the plate at 37° C. overnight (o/n) (18-24 h).
(§2) • 1. Prepare bacterial culture by adding 20 ml Mueller Hinton broth (*) to a 250-ml Erlenmeyer flask with sidearm. • 2. Using a sterile inoculating loop, pick approximately 10 colonies from the o/n bacterial culture and transfer bacteria to the flask. • 3. Incubate the E-flask with bacteria on a rotating shaker at 37° C. until OD590=0.40. This OD should equal an approximate bacterial count of 1×10^8 cfu/ml (**) • This is measured using a colorimeter (or spectrophotometer). Set reference and press R (=reference) first, then measure the bacterial culture by pressing T (=test). • 4. At OD590 0.40, serially dilute the bacterial suspension 1:10 000 in Mueller Hinton broth to obtain a bacterial target concentration of 1×10^4 cfu/ml. Determine the initial inoculation by serially diluting 0.1 ml in 0.9 ml blanks of sterile PBS and plating 0.1 ml aliquots to LA plates, preferably. • 5. Different concentrations of the tested compound are prepared in 0.6-0.8 ml of the final dilution of bacterial suspension and placed in 2-ml test tubes. • 6. Incubate test tubes in an orbital shaker incubator at 37° C. for 24 h.
(§3) • 7. Analyze visible growth, i.e. “Foggy” or “Clear”. MIC is being defined as the interval between the highest “Foggy” and the lowest “Clear” concentration of the compound.
(§4) Different concentrations of PDEA (Example 1) in Mueller Hinton medium were prepared. Bacteria were inoculated to a concentration of 20 000 CFU/ml and incubated at 37° C. for 24 hours. Minimum inhibitory concentrations (MICs) were determined by analyzing visible growth, i.e., readouts were “Clear” and “Foggy”.
(§5) Different concentrations of the quaternary ammonium PDEA (Example 2) in Mueller Hinton medium were prepared. Bacteria were inoculated to a concentration of 20 000 CFU/ml and incubated at 37° C. for 24 hours. Minimum inhibitory concentrations (MICs) were determined by analyzing visible growth, i.e., readouts were “Clear” and “Foggy”.
(§6) Different concentrations of this compound in Mueller Hinton medium were prepared. Bacteria were inoculated to a concentration of 20 000 CFU/ml and incubated at 37° C. for 24 hours. Minimum inhibitory concentrations (MICs) were determined by analyzing visible growth, i.e., readouts were “Clear” and “Foggy”.
(§7) Different concentrations of this compound were prepared in Mueller Hinton broth. Bacteria were inoculated to a concentration of 20 000 CFU/ml and incubated at 37° C. for 24 hours. Minimum inhibitory concentrations (MICs) were determined by analyzing visible growth, i.e., readouts were “Clear” and “Foggy”.

[2] = test system: Klebsiella pneumoniae AO15200; assay: as above; conditions: for MIC: Klebsiella pneumoniae
Experimental: as §1, §2, §3, §4, §5, §6, §7

Escherichia coli CFT073 = assay: as above; conditions: for MIC: Escherichia coli
Experimental: as §1, §2, §3, §4, §5, §6, §7

[3] = test system: Enterococcus faecium #11 (KI, Clinical Isolate); assay: as above; conditions: for MIC: Enterococcus faecium
Experimental: as §1, §2, §3, §4, §5, §6, §7

[4] = test system: Staphylococcus epidermidis Se19 (Clinical Isolate, Jan Ingemar Falk); assay: as above; conditions: for MIC: Staphylococcus epidermidis
Experimental: as §1, §2, §3, §4, §5, §6, §7

[5] = test system: Staphylococcus aureus B5381; assay: as above; conditions: for MIC: Staphylococcus aureus
Experimental: as §1, §2, §3, §4, §5, §6, §7

[6] = test system: Pseudomonas aeruginosa PA02; assay: as above; conditions: for MIC: Pseudomonas aeruginosa
Experimental: as §1, §2, §3, §4, §5, §6, §7

Candida albicans = assay: Minimum inhibitory concentration (MIC), visible growth, YPD broth; conditions: for MIC: Candida albicans
Experimental: as §1, §2, §3
(*) When testing Candida albicans, Yeast extract Peptone Dextrose (YPD) broth is being used.
(**) For Candida albicans it is equal to 1×10^7
Different concentrations of PDEA were also prepared in Yeast extract Peptone Dextrose (YPD) broth. Candida albicans were inoculated to a concentration of 20 000 CFU/ml and incubated at 37° C. for 24 hours. Readouts were “Clear” and “Foggy”.
Different concentrations of the quaternary ammonium PDEA (Example 2) were also prepared in Yeast extract Peptone Dextrose (YPD) broth. Candida albicans were inoculated to a concentration of 20 000 CFU/ml and incubated at 37° C. for 24 hours. Readouts were “Clear” and “Foggy”.
Different concentrations of the Para position-PDEA” is (S)-4-pyridylthio cysteamine were also prepared in Yeast extract Peptone Dextrose (YPD) broth. Candida albicans were inoculated to a concentration of 20 000 CFU/ml and incubated at 37° C. for 24 hours. Readouts were “Clear” and “Foggy”.
Different concentrations of “Carboxylic acid PDEA” is 3-(2-Pyridyldithio)propanoic acid (CAS: 68617-64-1) were also prepared in Yeast extract Peptone Dextrose (YPD) broth. Candida albicans were inoculated to a concentration of 20 000 CFU/ml and incubated at 37° C. for 24 hours. Readouts were “Clear” and “Foggy”.

[7] = Mueller Hinton, 20 000 CFU/ml, 37° C., 24 hours, read-out: MIC

## C[N+](C)(C)CCSSc1ccccn1 [Example 2, 2-(2-Pyridyldisulanyl)ethan-(trimethylammonium) chloride]
[1]; 0.11 mM
  visible growth readout: Foggy
[1]; 0.225 mM
  visible growth readout: Clear
[1]; 0.55 mM
  visible growth readout: Clear
[1]; 1.125 mM
  visible growth readout: Clear
[1]; 24 h
  MIC: 110 to 225 µM
[2]; 0.11 mM
  visible growth readout: Foggy
[2]; 0.225 mM
  visible growth readout: Foggy
[2]; 0.55 mM
  visible growth readout: Clear
[2]; 1.125 mM
  visible growth readout: Clear
[2]; AO15200, 24 h
  MIC: 225 to 550 µM
Escherichia coli CFT073; 0.11 mM
  visible growth readout: Foggy
Escherichia coli CFT073; 0.225 mM
  visible growth readout: Foggy
Escherichia coli CFT073; 0.55 mM
  visible growth readout: Clear
Escherichia coli CFT073; 1.125 mM
  visible growth readout: Clear
Escherichia coli CFT073; CFT073, 24 h
  MIC: 225 to 550 µM
[3]; 0.025 mM
  visible growth readout: Foggy
[3]; 0.055 mM
  visible growth readout: Foggy
[3]; 0.11 mM
  visible growth readout: Clear
[3]; 0.225 mM
  visible growth readout: Clear
[3]; 24 h
  MIC: 55 to 110 µM
[4]; 0.025 mM
  visible growth readout: Foggy
[4]; 0.055 mM
  visible growth readout: Foggy
[4]; 0.11 mM
  visible growth readout: Clear
[4]; 0.225 mM
  visible growth readout: Clear
[4]; 24 h
  MIC: 55 to 110 µM
[5]; 0.11 mM
  visible growth readout: Foggy
[5]; 0.225 mM
  visible growth readout: Foggy
[5]; 0.55 mM
  visible growth readout: Foggy
[5]; 1.125 mM
  visible growth readout: Clear
[5]; B5381, 24 h
  MIC: 550 to 1120 µM
[6]; 0.11 mM
  visible growth readout: Foggy
[6]; 0.225 mM
  visible growth readout: Foggy
[6]; 0.55 mM
  visible growth readout: Foggy
[6]; 1.125 mM
  visible growth readout: Clear
[6]; PA02, 24 h
  MIC: 550 to 1120 µM
Candida albicans; 0.11 mM
  visible growth readout: Foggy
Candida albicans; 0.225 mM
  visible growth readout: Foggy
Candida albicans; 0.55 mM
  visible growth readout: Clear
Candida albicans; 1.1 mM
  visible growth readout: Clear
Candida albicans; 2.2 mM
  visible growth readout: Clear
Candida albicans; 4.4 mM
  visible growth readout: Clear
Candida albicans; 24 h
  MIC: 225 to 550 µM

## NCCSSc1ccncc1 [Example 3, (S)-4-pyridylthio cysteamine]
[1]; 0.01 mM
  visible growth readout: Foggy
[1]; 0.05 mM
  visible growth readout: Foggy
[1]; 0.1 mM
  visible growth readout: Foggy
[1]; 0.2 mM
  visible growth readout: Foggy
[1]; 0.4 mM
  visible growth readout: Clear
[1]; 0.8 mM
  visible growth readout: Clear
[1]; 1.6 mM
  visible growth readout: Clear
[1]; 3.2 mM
  visible growth readout: Clear
[1]; [7]
  MIC: 200 to 400 µM (≈ 37.3 to 74.5 µg/mL)
[2]; 0.01 mM
  visible growth readout: Foggy
[2]; 0.05 mM
  visible growth readout: Foggy
[2]; 0.1 mM
  visible growth readout: Foggy
[2]; 0.2 mM
  visible growth readout: Foggy
[2]; 0.4 mM
  visible growth readout: Clear
[2]; 0.8 mM
  visible growth readout: Clear
[2]; 1.6 mM
  visible growth readout: Clear
[2]; 3.2 mM
  visible growth readout: Clear
[2]; AO15200, Mueller Hinton, 20 000 CFU/ml, 37° C., 24 hours, read-out: MIC
  MIC: 200 to 400 µM (≈ 37.3 to 74.5 µg/mL)
Escherichia coli CFT073; 0.01 mM
  visible growth readout: Foggy
Escherichia coli CFT073; 0.05 mM
  visible growth readout: Foggy
Escherichia coli CFT073; 0.1 mM
  visible growth readout: Foggy
Escherichia coli CFT073; 0.2 mM
  visible growth readout: Foggy
Escherichia coli CFT073; 0.4 mM
  visible growth readout: Clear
Escherichia coli CFT073; 0.8 mM
  visible growth readout: Clear
Escherichia coli CFT073; 1.6 mM
  visible growth readout: Clear
Escherichia coli CFT073; 3.2 mM
  visible growth readout: Clear
Escherichia coli CFT073; CFT073, Mueller Hinton, 20 000 CFU/ml, 37° C., 24 hours, read-out: MIC
  MIC: 200 to 400 µM (≈ 37.3 to 74.5 µg/mL)
[3]; 0.01 mM
  visible growth readout: Foggy
[3]; 0.05 mM
  visible growth readout: Foggy
[3]; 0.1 mM
  visible growth readout: Foggy
[3]; 0.2 mM
  visible growth readout: Clear
[3]; 0.4 mM
  visible growth readout: Clear
[3]; 0.8 mM
  visible growth readout: Clear
[3]; 1.6 mM
  visible growth readout: Clear
[3]; 3.2 mM
  visible growth readout: Clear
[3]; [7]
  MIC: 100 to 200 µM (≈ 18.6 to 37.3 µg/mL)
[4]; 0.01 mM
  visible growth readout: Foggy
[4]; 0.05 mM
  visible growth readout: Foggy
[4]; 0.1 mM
  visible growth readout: Foggy
[4]; 0.2 mM
  visible growth readout: Clear
[4]; 0.4 mM
  visible growth readout: Clear
[4]; 0.8 mM
  visible growth readout: Clear
[4]; 1.6 mM
  visible growth readout: Clear
[4]; 3.2 mM
  visible growth readout: Clear
[4]; [7]
  MIC: 100 to 200 µM (≈ 18.6 to 37.3 µg/mL)
[5]; 0.01 mM
  visible growth readout: Foggy
[5]; 0.05 mM
  visible growth readout: Foggy
[5]; 0.1 mM
  visible growth readout: Foggy
[5]; 0.2 mM
  visible growth readout: Foggy
[5]; 0.4 mM
  visible growth readout: Clear
[5]; 0.8 mM
  visible growth readout: Clear
[5]; 1.6 mM
  visible growth readout: Clear
[5]; 3.2 mM
  visible growth readout: Clear
[5]; B5381, Mueller Hinton, 20 000 CFU/ml, 37° C., 24 hours, read-out: MIC
  MIC: 200 to 400 µM (≈ 37.3 to 74.5 µg/mL)
[6]; 0.01 mM
  visible growth readout: Foggy
[6]; 0.05 mM
  visible growth readout: Foggy
[6]; 0.1 mM
  visible growth readout: Foggy
[6]; 0.2 mM
  visible growth readout: Foggy
[6]; 0.4 mM
  visible growth readout: Foggy
[6]; 0.8 mM
  visible growth readout: Clear
[6]; 1.6 mM
  visible growth readout: Clear
[6]; 3.2 mM
  visible growth readout: Clear
[6]; PA02, Mueller Hinton, 20 000 CFU/ml, 37° C., 24 hours, read-out: MIC
  MIC: 400 to 800 µM (≈ 74.5 to 149 µg/mL)
Candida albicans; 0.01 mM
  visible growth readout: Foggy
Candida albicans; 0.05 mM
  visible growth readout: Foggy
Candida albicans; 0.1 mM
  visible growth readout: Foggy
Candida albicans; 0.2 mM
  visible growth readout: Foggy
Candida albicans; 0.4 mM
  visible growth readout: Foggy
Candida albicans; 0.8 mM
  visible growth readout: Foggy
Candida albicans; 1.6 mM
  visible growth readout: Foggy
Candida albicans; 3.2 mM
  visible growth readout: Clear
Candida albicans; YPD broth, 20 000 CFU/ml, 37° C., 24 hours, read-out: MIC
  MIC: 1600 to 3200 µM (≈ 298 to 596 µg/mL)
